Test results: US7750038B2, “Sulfonylated heterocycles useful for modulation of the progesterone receptor” (Wyeth LLC, priority 2007, dated 2010)

Tested on: alkaline phosphatase activity in T47D cells
Experiment: Effects of progestins and antiprogestins on alkaline phosphatase activity in T47D cells
Type: cell-based
Settings: Homo sapiens, agonist mode, typical value of reference compound
Protocol: Effects of Progestins and Antiprogestins on Alkaline Phosphatase Activity in T47D Cells
PURPOSE: To identify progestins or antiprogestins by determining a compound's effect on alkaline phosphatase activity in T47D cells.
Culture medium: DMEM:F12 (1:1) (GIBCO, BRL) supplemented with 5% (v/v) charcoal stripped fetal bovine serum (not heat-inactivated), 100 U/mL penicillin, 100 μg/mL streptomycin, and 2 mM the GlutaMax™ reagent (GIBCO, BRL).
Alkaline phosphatase assay buffer: • I. 0.1M Tris-HCl, pH 9.8, containing 0.2% the Triton® X-100 reagent • II. 0.1M Tris-HCl, pH 9.8, containing 4 mM p-nitrophenyl phosphate (Sigma).
Frozen T47D cells were thawed in a 37° C. water bath and diluted to 280,000 cells/mL in culture medium. To each well in a 96-well plate (Falcon, Becton Dickinson Labware), 180 μL of diluted cell suspension was added. Twenty μL of reference or test compounds diluted in the culture medium was then added to each well. When testing for progestin antagonist activity, reference antiprogestins or test compounds were added in the presence of 1 nM progesterone. The cells were incubated at 37° C. in a 5% CO2/humidified atmosphere for 24 hours. For high throughput screening, one concentration of each compound was tested at 0.3 μg/mL. Based on an average molecular weight of 300 g/mol for the compounds in the library, the concentration was approximately 1 μM. Subsequently, active compounds were tested in dose response assays to determine EC50 and IC50.
At the end of treatment, the medium was removed from the plate. Fifty μL of assay buffer I was added to each well. The plates were shaken in a titer plate shaker for 15 min. Then, 150 μL of assay buffer II was added to each well. Optical density measurements were taken at 5 min intervals for 30 min at a test wavelength of 405 nm.
For reference and test compounds, a dose response curve was generated for dose (X-axis) vs. the rate of enzyme reaction (slope) (Y-axis). Square root-transformed data were used for analysis of variance and nonlinear dose response curve fitting for both agonist and antagonist modes. Huber weighting was used to down-weight the effects of outliers. EC50 or IC50 values were calculated from the retransformed values. JMP software (SAS Institute, Inc.) is used for both one-way analysis of variance and non-4 linear dose response analysis in both single dose and dose response studies.
Progesterone and trimegestone are reference progestins known in the art and typically show an EC50 of about 0.1 nM to about 2.0 nM.

`CC(=O)[C@H]1CC[C@H]2[C@@H]3CCC4=CC(=O)CC[C@]4(C)[C@H]3CC[C@]12C` [Progesterone] showed an EC50 of 0.1 to 2 nM.

Same assay, conditions: Homo sapiens, antagonist mode, typical value of reference compound, read-out: IC50 of reference antiprogestin, alkaline phosphatase T47D

Work on `CC#C[C@]1(O)CC[C@H]2[C@@H]3CCC4=CC(=O)CCC4=C3[C@@H](c3ccc(N(C)C)cc3)C[C@@]21C` [RU486, reference compound] yielded an IC50 of 0.1 to 2 nM.

Same assay, conditions: Homo sapiens, progestin antagonist mode in the presence of 1 nM progesterone, 24 hours, read-out: Alkaline Phosphatase T47D IC50

`Cn1c(C#N)ccc1-c1ccc2c(c1)CCN2S(C)(=O)=O` [Example 1, 1-methyl-5-[1-(methylsulfonyl)-2,3-dihydro-1H-indole-5-yl]-1H-pyrrole-2-carbonitrile] and `Cn1c(C#N)ccc1-c1ccc2c(c1)CCCN2S(C)(=O)=O` [Example 9, 1-methyl-5-[1-(methylsulfonyl)-1,2,3,4-tetrahydroquinolin-6-yl]-1H-pyrrole-2-carbonitrile] are within 1.5-fold of each other in IC50: 4.3 nM for the first, 4.4 nM for the second.

`Cn1c(C#N)ccc1-c1ccc2c(c1)C(C)(C)CN2S(C)(=O)=O` [Example 2, 5-[3,3-dimethyl-1-(methylsulfonyl)-2,3-dihydro-1H-indol-5-yl]-1-methyl-1H-pyrrole-2-carbonitrile] and `CCS(=O)(=O)N1CC(C)(C)c2cc(-c3ccc(C#N)n3C)ccc21` [Example 3, 5-[1-(ethylsulfonyl)-3,3-dimethyl-2,3-dihydro-1H-indol-5-yl]-1-methyl-1H-pyrrole-2-carbonitrile] are within 1.5-fold of each other in IC50: 9.2 nM for the first, 6.8 nM for the second.

`CCS(=O)(=O)N1CCc2cc(-c3ccc(C#N)n3C)ccc21` [Example 4, 5-[1-(ethylsulfonyl)-2,3-dihydro-1H-indol-5-yl]-1-methyl-1H-pyrrole-2-carbonitrile] and `CCS(=O)(=O)N1CCCc2cc(-c3ccc(C#N)n3C)ccc21` [Example 10, 5-[1-(ethylsulfonyl)-1,2,3,4-tetrahydroquinolin-6-yl]-1-methyl-1H-pyrrole-2-carbonitrile] are within 1.5-fold of each other in IC50: 2.4 nM for the first, 3.15 nM for the second.

Going from `CC(C)S(=O)(=O)N1CCc2cc(-c3ccc(C#N)n3C)ccc21` [Example 5, 5-[1-(isopropylsulfonyl)-2,3-dihydro-1H-indol-5-yl]-1-methyl-1H-pyrrole-2-carbonitrile] to `CCCS(=O)(=O)N1CCc2cc(-c3ccc(C#N)n3C)ccc21` [Example 6, 1-methyl-5-[1-(propylsulfonyl)-2,3-dihydro-1H-indol-5-yl]-1H-pyrrole-2-carbonitrile], the IC50 falls from 4.9 nM to 2.3 nM (2.1-fold). The second is the more potent here.

`Cn1c(C#N)ccc1-c1cc(F)c2c(c1)CCN2S(C)(=O)=O` [Example 7, 5-[7-fluoro-1-(methylsulfonyl)-2,3-dihydro-1H-indol-5-yl]-1-methyl-1H-pyrrole-2-carbonitrile] and `CCS(=O)(=O)N1CCc2cc(-c3ccc(C#N)n3C)cc(F)c21` [Example 8, 5-[1-(ethylsulfonyl)-7-fluoro-2,3-dihydro-1H-indol-5-yl]-1-methyl-1H-pyrrole-2-carbonitrile] are within 1.5-fold of each other in IC50: 11.1 nM for the first, 12.2 nM for the second.

For `CCCS(=O)(=O)N1CCCc2cc(-c3ccc(C#N)n3C)ccc21` [Example 11, 1-methyl-5-[1-(propylsulfonyl)-1,2,3,4-tetrahydroquinolin-6-yl]-1H-pyrrole-2-carbonitrile], the IC50 was 3.6 nM.
